For this test, the system named is P388 leukemia ip, CD2F1 mice, survival T/C. Put plainly: NCI In Vivo Anticancer Drug Screen. Data for tumor model P388 Leukemia (intraperitoneal) in CD2F1 (CDF1) mice. The following applies: endpoint: median survival time, higher = longer survival. A digest of the protocol:
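Mice carrying the transplanted tumor received test compound or vehicle. Survival was recorded in each group, and the value is the treated-group measurement divided by that of the vehicle-treated control group.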

[1] abbreviates: dose: 6.25 mg/kg/injection, schedule: Q01DX009 (ip), vehicle: saline with Tween-80.
Setting [2] is: dose: 6.25 mg/kg/injection, schedule: Q01DX009 (ip), vehicle: saline.
Setting [3] is: dose: 12.5 mg/kg/injection, schedule: Q01DX009 (ip), vehicle: saline with Tween-80.
The mark [4] stands for this setting: dose: 12.5 mg/kg/injection, schedule: Q01DX009 (ip), vehicle: saline.
The mark [5] stands for this setting: dose: 25.0 mg/kg/injection, schedule: Q01DX009 (ip), vehicle: saline with Tween-80.
Setting [6] is: dose: 25.0 mg/kg/injection, schedule: Q01DX009 (ip), vehicle: saline.
Setting [7] is: dose: 50.0 mg/kg/injection, schedule: Q01DX009 (ip), vehicle: saline with Tween-80.
The mark [8] stands for this setting: dose: 50.0 mg/kg/injection, schedule: Q01DX009 (ip), vehicle: saline.
Setting [9] is: dose: 50.0 mg/kg/injection, schedule: Q01DX005 (ip), vehicle: Klucel (hydroxypropylcellulose) (HPC).
Where [10] appears, read: dose: 60.0 mg/kg/injection, schedule: Q01DX005 (ip), vehicle: Klucel (hydroxypropylcellulose) (HPC).
[11] abbreviates: dose: 120.0 mg/kg/injection, schedule: Q01DX005 (ip), vehicle: Klucel (hydroxypropylcellulose) (HPC).
[12] abbreviates: dose: 240.0 mg/kg/injection, schedule: Q01DX005 (ip), vehicle: Klucel (hydroxypropylcellulose) (HPC).
Setting [13] is: dose: 50.0 mg/kg/injection, schedule: Q04DX002 (ip), vehicle: saline with Tween-80.
Setting [14] is: dose: 100.0 mg/kg/injection, schedule: Q04DX002 (ip), vehicle: saline with Tween-80.
Setting [15] is: dose: 200.0 mg/kg/injection, schedule: Q04DX002 (ip), vehicle: saline with Tween-80.
Where [16] appears, read: dose: 12.5 mg/kg/injection, schedule: Q01DX009 (ip), vehicle: distilled water + Tween-80.
Where [17] appears, read: dose: 25.0 mg/kg/injection, schedule: Q01DX009 (ip), vehicle: distilled water + Tween-80.
Where [18] appears, read: dose: 25.0 mg/kg/injection, schedule: Q04DX002 (ip), vehicle: saline with Tween-80.

Structures are written as SMILES. “And” between values parts separate entries of the source, which are not always exact repeats. Identical values can stand only once. Inconclusive results and toxic doses are left out.

Regarding `[CH3][Sn]1([CH3])[O]P(=O)(c2ccccc2)[O]1`, the T/C was 99 % of control under setting [1]; 110 % of control under setting [2]; 96 % of control under setting [3]; 112 % of control under setting [4]; 107 % of control under setting [5]; 119 % of control under setting [6]. The T/C was 105 % of control under setting [7]; 112 % of control and 120 % of control under setting [8].
In the case of `CC(NC(=O)C(=O)c1c[nH]c2ccccc12)C(=O)O` (stereo not given), the T/C by setting is: (dose: 60.0 mg/kg/injection, schedule: Q01DX005 (ip), vehicle: saline with Tween-80) 98 % of control; (dose: 120.0 mg/kg/injection, schedule: Q01DX005 (ip), vehicle: saline with Tween-80) 96 % of control; (dose: 240.0 mg/kg/injection, schedule: Q01DX005 (ip), vehicle: saline with Tween-80) 103 % of control.
Take `Cc1c(/C=C/c2oc3ccc(C(=N)N)cc3c2C)oc2ccc(C(=N)N)cc12`: the T/C (dose: 100.0 mg/kg/injection, schedule: Q04DX002 (ip), vehicle: saline) is 124 % of control.
Turning to `c1ccc2c(c1)NC(c1ccc3c(c1)Sc1cc(C4Nc5ccccc5N4)ccc1O3)N2`, the T/C (dose: 50.0 mg/kg/injection, schedule: Q01DX005 (ip), vehicle: saline with Tween-80) was 95 % of control; the T/C (dose: 100.0 mg/kg/injection, schedule: Q01DX005 (ip), vehicle: saline with Tween-80) is 102 % of control; the T/C (dose: 200.0 mg/kg/injection, schedule: Q01DX005 (ip), vehicle: saline with Tween-80) was 100 % of control.
On to `CCCCCC1NC(C(=O)O)CS1` (stereo not given), for which the T/C is, setting by setting: (dose: 50.0 mg/kg/injection, schedule: Q01DX009 (ip), vehicle: suspension in saline) 88 % of control; (dose: 100.0 mg/kg/injection, schedule: Q01DX009 (ip), vehicle: suspension in saline) 94 % of control; (dose: 200.0 mg/kg/injection, schedule: Q01DX009 (ip), vehicle: suspension in saline) 102 % of control.
For `CC(=Nc1ccc(F)cc1)C1C(=O)c2ccccc2C1=O`, the T/C under setting [9] is 100 % of control; the T/C (dose: 100.0 mg/kg/injection, schedule: Q01DX005 (ip), vehicle: Klucel (hydroxypropylcellulose) (HPC)) is 100 % of control; the T/C (dose: 200.0 mg/kg/injection, schedule: Q01DX005 (ip), vehicle: Klucel (hydroxypropylcellulose) (HPC)) is 100 % of control.
Turning to `CC(O)Cc1c(N)n2c(nc3ccccc32)[nH]c1=O` (stereo not given), the T/C was 102 % of control under setting [10], 97 % of control under setting [11] and 92 % of control under setting [12].
Turning to `C1=CSC(=C2SC=CS2)S1`, the T/C runs as follows: under setting [1], 106 % of control; under setting [3], 106 % of control and 97 % of control; under setting [5], 102 % of control and 110 % of control; under setting [7], 100 % of control and 106 % of control and 114 % of control; (dose: 100.0 mg/kg/injection, schedule: Q01DX009 (ip), vehicle: saline with Tween-80) 108 % of control; (dose: 200.0 mg/kg/injection, schedule: Q01DX009 (ip), vehicle: saline with Tween-80) 100 % of control.
`C=C1C(=O)C2=CC1CCC(=O)C1(C)CCC(OC(C)=O)C(C)(C)C1CC2O` (stereo not given): the T/C (dose: 7.5 mg/kg/injection, schedule: Q01DX009 (ip), vehicle: Klucel (hydroxypropylcellulose) (HPC)) was 105 % of control and 107 % of control; the T/C (dose: 15.0 mg/kg/injection, schedule: Q01DX009 (ip), vehicle: Klucel (hydroxypropylcellulose) (HPC)) is 110 % of control and 120 % of control and 123 % of control; the T/C (dose: 30.0 mg/kg/injection, schedule: Q01DX009 (ip), vehicle: Klucel (hydroxypropylcellulose) (HPC)) is 102 % of control and 113 % of control and 114 % of control; the T/C (dose: 60.0 mg/kg/injection, schedule: Q01DX009 (ip), vehicle: Klucel (hydroxypropylcellulose) (HPC)) was 111 % of control and 124 % of control.
Turning to `COC(=O)C1=C(\OC)c2c(ccc(OC)c2OC)C(=O)N2CCc3cc4c(cc3\C2=C\1C(=O)OC)OCO4`, the T/C reads like this: under setting [13], 103 % of control; under setting [14], 105 % of control; under setting [15], 94 % of control.
`COc1ccc(-n2c(-c3ccc(-n4c(C)nc5ccc(I)cc5c4=O)cc3)n[nH]c2=S)cc1`: the T/C runs as follows: (dose: 100.0 mg/kg/injection, schedule: Q04DX002 (ip), vehicle: Klucel (hydroxypropylcellulose) (HPC)) 103 % of control; (dose: 200.0 mg/kg/injection, schedule: Q04DX002 (ip), vehicle: Klucel (hydroxypropylcellulose) (HPC)) 98 % of control; (dose: 400.0 mg/kg/injection, schedule: Q04DX002 (ip), vehicle: Klucel (hydroxypropylcellulose) (HPC)) 98 % of control.
Take `Cc1ccc(Cl)cc1S(=O)(=O)Cl`: the T/C reads like this: under setting [16], 100 % of control; under setting [17], 110 % of control.
Regarding `COC(=O)C1=C(C(=O)OC)C2OC1C(COC(=O)NC1CCCCC1)=C2COC(=O)NC1CCCCC1`, the T/C was 89 % of control under setting [16]; 87 % of control under setting [17]; 89 % of control (dose: 50.0 mg/kg/injection, schedule: Q01DX009 (ip), vehicle: distilled water + Tween-80); 87 % of control (dose: 100.0 mg/kg/injection, schedule: Q01DX009 (ip), vehicle: distilled water + Tween-80); 101 % of control (dose: 200.0 mg/kg/injection, schedule: Q01DX009 (ip), vehicle: distilled water + Tween-80).
As for `CC(CO)/[N+]([O-])=N/O` (stereo not given), the T/C runs as follows: (dose: 6.0 mg/kg/injection, schedule: Q01DX005 (ip), vehicle: Klucel (hydroxypropylcellulose) (HPC)) 95 % of control; (dose: 12.0 mg/kg/injection, schedule: Q01DX005 (ip), vehicle: Klucel (hydroxypropylcellulose) (HPC)) 94 % of control; (dose: 24.0 mg/kg/injection, schedule: Q01DX005 (ip), vehicle: Klucel (hydroxypropylcellulose) (HPC)) 100 % of control; (dose: 48.0 mg/kg/injection, schedule: Q01DX005 (ip), vehicle: Klucel (hydroxypropylcellulose) (HPC)) 100 % of control.
Consider `CN1c2ccccc2C(=O)Nc2cnc(Cl)nc21`, for which the T/C by setting is: (dose: 25.0 mg/kg/injection, schedule: Q01DX005 (ip), vehicle: Klucel (hydroxypropylcellulose) (HPC)) 94 % of control; under setting [9], 108 % of control.
Consider `COc1ccc2c(c1)NC(C(C)C)=NS2(=O)=O`, for which the T/C is, setting by setting: under setting [10], 99 % of control; under setting [11], 95 % of control; under setting [12], 97 % of control.
Regarding `Nc1cccc(N)n1`, the T/C reads like this: (dose: 3.12 mg/kg/injection, schedule: Q01DX009 (ip), vehicle: saline) 102 % of control; under setting [2], 101 % of control (2×) and 103 % of control; under setting [4], 100 % of control and 109 % of control and 114 % of control; under setting [6], 112 % of control and 124 % of control.
Turning to `O=S(=O)(O)C1CC2NC3C4CCCC(S(=O)(=O)O)C4C(Nc4ccccc4)CC3N(c3ccccc3)C2CC1Nc1ccccc1` (stereo not given), the T/C under setting [8] is 112 % of control; the T/C (dose: 100.0 mg/kg/injection, schedule: Q01DX009 (ip), vehicle: saline) is 116 % of control; the T/C (dose: 200.0 mg/kg/injection, schedule: Q01DX009 (ip), vehicle: saline) was 116 % of control.
For the compound `O=C1c2ccccc2C(=O)c2c(Nc3cccc(S(=O)(=O)N(CCO)CCO)c3)ccc(O)c21`, the T/C is 99 % of control under setting [18], 93 % of control under setting [13], 92 % of control under setting [14] and 93 % of control under setting [15].
Turning to `OC1CC2CC1CC2c1cnc[nH]1` (stereo not given), the T/C runs as follows: (dose: 12.5 mg/kg/injection, schedule: Q04DX002 (ip), vehicle: saline with Tween-80) 100 % of control; under setting [18], 100 % of control; under setting [13], 100 % of control; under setting [14], 100 % of control.
Consider `O=C(CCN1CC1)OCCOC(=O)CCN1CC1`, for which the T/C is, setting by setting: (dose: 25.0 mg/kg/injection, schedule: Q04DX003 (ip), vehicle: saline) 159 % of control; (dose: 50.0 mg/kg/injection, schedule: Q04DX003 (ip), vehicle: saline with Tween-80) 150 % of control; (dose: 50.0 mg/kg/injection, schedule: Q04DX003 (ip), vehicle: saline) 181 % of control; (dose: 75.0 mg/kg/injection, schedule: Q04DX003 (ip), vehicle: saline with Tween-80) 166 % of control.

(Values after PubChem BioAssay AID330 (DTP/NCI, 2004).)
